Values belong to the molecule of their own block, whether it stands above or below them.
Key:
[1] = biological target: T1, farnesyl protein transferase (Homo sapiens, UniProt P49354+P49356); experiment: FPT IC50 (H-ras), inhibition of farnesyl protein transferase, in vitro enzyme assay; assay type: biochemical
Description: (§1) FPT IC50 (inhibition of farnesyl protein transferase, in vitro enzyme assay) and COS Cell IC50 (Cell-Based Assay) were determined following the assay procedures described in WO 95/10516, published April 20, 1995. GGPT IC50 (inhibition of geranylgeranyl protein transferase, in vitro enzyme assay), Cell Mat Assay, and anti-tumor activity (in vivo anti-tumor studies) could be determined by the assay procedures described in WO 95/10516. The disclosure of WO 95/10516 is incorporated herein by reference thereto.

[2] = system: Human tumor cells; experiment: Soft Agar Assay (anchorage-independent growth); assay type: cell-based
Description: Anchorage-independent growth is a characteristic of tumorigenic cell lines. Human tumor cells are suspended in growth medium containing 0.3% agarose and an indicated concentration of a farnesyl transferase inhibitor. The solution is overlayed onto growth medium solidified with 0.6% agarose containing the same concentration of farnesyl transferase inhibitor as the top layer. After the top layer is solidified, plates are incubated for 10-16 days at 37°C under 5% CO2 to allow colony outgrowth. After incubation, the colonies are stained by overlaying the agar with a solution of MTT (3-[4,5-dimethyl-thiazol-2-yl]-2,5-diphenyltetrazolium bromide, Thiazolyl blue) (1 mg/mL in PBS). Colonies can be counted and the IC50's can be determined.

[3] = biological target: T1, farnesyl protein transferase; experiment: FPT IC50 (K-ras), inhibition of farnesyl protein transferase, in vitro enzyme assay; assay type: biochemical
Description: as §1

[4] = system: COS Cell; experiment: COS Cell IC50 (Cell-Based Assay)
Description: as §1

T1 sequence (P49356 whole entry, one chain of several): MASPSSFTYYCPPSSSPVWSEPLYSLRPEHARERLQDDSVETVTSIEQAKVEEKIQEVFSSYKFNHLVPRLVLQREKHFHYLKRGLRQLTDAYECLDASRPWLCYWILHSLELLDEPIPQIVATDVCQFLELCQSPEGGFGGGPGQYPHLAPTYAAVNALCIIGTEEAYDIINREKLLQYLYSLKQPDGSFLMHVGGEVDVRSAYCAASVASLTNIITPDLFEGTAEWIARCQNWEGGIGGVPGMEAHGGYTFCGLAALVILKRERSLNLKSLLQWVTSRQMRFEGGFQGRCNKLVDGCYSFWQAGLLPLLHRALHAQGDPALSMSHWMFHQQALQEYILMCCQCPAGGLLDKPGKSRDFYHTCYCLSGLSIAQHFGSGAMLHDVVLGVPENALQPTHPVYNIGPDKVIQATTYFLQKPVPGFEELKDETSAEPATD

Structure (SMILES): O=C(CC1CCN(S(=O)(=O)c2ccccc2)CC1)N1CCC([C@H]2c3ncc(Br)cc3CCc3cc(Cl)cc(Br)c32)CC1 [Example 1]
IC50 [1]: 72 nM

Structure (SMILES): O=C(CC1CCN(S(=O)(=O)Cc2ccccc2)CC1)N1CCC([C@H]2c3ncc(Br)cc3CCc3cc(Cl)cc(Br)c32)CC1 [Example 9]
IC50 [4]: 0.35 µM

Structure (SMILES): CC1(C)C2CCC1(CS(=O)(=O)N1CCC(CC(=O)N3CCC([C@H]4c5ncc(Br)cc5CCc5cc(Cl)cc(Br)c54)CC3)CC1)C(=O)C2 (stereo partly shown) [Example 11]
IC50 [1]: 34.8 nM

Structure (SMILES): O=C(CC1CCN(S(=O)(=O)c2cccs2)CC1)N1CCC([C@H]2c3ncc(Br)cc3CCc3cc(Cl)cc(Br)c32)CC1 [Example 13]
IC50 [1]: 20 nM

Structure (SMILES): Cn1cnc(S(=O)(=O)N2CCC(CC(=O)N3CCC([C@H]4c5ncc(Br)cc5CCc5cc(Cl)cc(Br)c54)CC3)CC2)c1 [Example 14]
IC50 [1]: 5.7 nM
IC50 [3]: 0.023 µM

Continued, in another order:

IC50 [2]: 0.05 µM
Structure (SMILES): CS(=O)(=O)N1CCC(CC(=O)N2CCC([C@H]3c4ncc(Br)cc4CCc4cc(Cl)cc(Br)c43)CC2)CC1 [Example 2]

IC50 [1]: 7.3 nM
IC50 [3]: 0.01 µM
IC50 [2]: 0.1 µM
Structure (SMILES): CN(C)S(=O)(=O)N1CCC(CC(=O)N2CCC([C@H]3c4ncc(Br)cc4CCc4cc(Cl)cc(Br)c43)CC2)CC1 [Example 3]
IC50 [4]: 0.009 µM

IC50 [2]: 0.25 µM
Structure (SMILES): CCCS(=O)(=O)N1CCC(CC(=O)N2CCC([C@H]3c4ncc(Br)cc4CCc4cc(Cl)cc(Br)c43)CC2)CC1 [Example 7]
IC50 [4]: 0.03 µM

inhibition at […] ([1]; @73 nM, read-out: FPT inhibition (H-ras) at a single concentration): 34%
Structure (SMILES): O=C(CC1CCN(S(=O)(=O)c2ccc(-c3ccccn3)s2)CC1)N1CCC([C@H]2c3ncc(Br)cc3CCc3cc(Cl)cc(Br)c32)CC1 [Example 12]

IC50 [1]: 54 nM
Structure (SMILES): CS(=O)(=O)N1CCC(CC(=O)N2CCN(C3c4ccc(Cl)cc4CCc4cc(Br)cnc43)CC2)CC1 (stereo not shown) [Example 15]

IC50 [1]: 80 nM
Structure (SMILES): NS(=O)(=O)N1CCC(CC(=O)N2CCN(C3c4ccc(Cl)cc4CCc4cc(Br)cnc43)CC2)CC1 (stereo not shown) [Example 16]

Reference: patent EP0927179B1, “SUBSTITUTED BENZOCYCLOHEPTAPYRIDINE DERIVATIVES USEFUL FOR INHIBITION OF FARNESYL PROTEIN TRANSFERASE” (SCHERING CORPORATION, priority 1996, dated 1998)
